Values quoted from earlier work, collected in patent US4310517A, “Tumor-resolving and histolytic medicaments and their use” (Troponwerke GmbH & Co., KG, priority 1976, dated 1982).
Like-named read-outs stand apart in the source and are kept apart here.

Test system: tumour cells

Compound: O=P1(N(CCCl)CCCl)NCCCO1 (centres unmarked) [cyclophosphamide]
- tumour cells destroyed (LD10 dosage): 99.999%
- tumour cells destroyed (one eighth of the LD10 dose): 90%
